Test results from patent publication US12552748B2, “Pyridine (thio)amides as fungicidal compounds” (Bayer Aktiengesellschaft, priority 2020, dated 2026).
Marks after values point to notes of the source that are not given here.

Assay: physchem
Format: physicochemical
Protocol: Measurement of Log P values as provided herein was performed according to EEC directive 79/831 Annex V.A8 by HPLC (High Performance Liquid Chromatography) on reversed phase columns with the following methods: […] If more than one Log P value is available within the same method, all the values are given and separated by “+”. Calibration was done with straight-chain alkan2-ones (with 3 to 16 carbon atoms) with known Log P values (measurement of Log P values using retention times with linear interpolation between successive alkanones). Lambda-max-values were determined using UV-spectra from 200 nm to 400 nm and the peak values of the chromatographic signals

SMILES | LogP
O=C(NCCc1ccc2c(c1)OCCO2)c1cc(Cl)ncc1Oc1cccc(C(F)(F)F)c1 [Compound I-105] | 3.84^[a]
CC(C)Oc1ccc(CCNC(=O)c2cc(Cl)ncc2Oc2cccc(C(F)(F)F)c2)cn1 [Compound I-106] | 4.08^[a]
O=C(NCCc1ccc(C(F)(F)F)cn1)c1cc(Cl)ncc1Oc1cccc(C(F)(F)F)c1 [Compound I-107] | 3.91^[a]
O=C(NCCc1ccc2c(c1)OCO2)c1cc(Cl)ncc1Oc1cccc(C(F)(F)F)c1 [Compound I-108] | 3.87^[a]
O=C(NCCc1cnc(C(F)(F)F)nc1)c1cc(Cl)ncc1Oc1cccc(C(F)(F)F)c1 [Compound I-110] | 3.57^[a]
Cc1ccc(CCNC(=O)c2cc(Cl)ncc2Oc2ccc(C(F)(F)F)c(Cl)c2)c(C)c1 [Compound I-111] | 4.48^[a]
Cc1ccc(CCNC(=O)c2cc(C(C)O)ncc2Oc2cccc(C(F)(F)F)c2)c(C)c1 (centres unmarked) [Compound I-112] | 3.67^[a]
Cc1ccc(CCNC(=O)c2cc(C(C)F)ncc2Oc2cccc(C(F)(F)F)c2)c(C)c1 (centres unmarked) [Compound I-114] | 4.62^[a]
Cc1ccc(CCNC(=O)c2cc(C(F)(F)F)ncc2Oc2cccc(C3CC3)c2F)c(C)c1 [Compound I-116] | 5.38^[a]
Cn1cc(-c2ccc(C(F)(F)CNC(=O)c3cc(Cl)ncc3Oc3cccc(C(F)F)c3)c(Cl)c2)cn1 [Compound I-117] | 3.64^[a]
COCCc1cc(C(=O)NCCc2ccc(C)cc2C)c(Oc2cccc(C(F)(F)F)c2)cn1 [Compound I-118] | 4.16^[a]
CC(=O)c1ccc(C(F)(F)CNC(=O)c2cc(Cl)ncc2Oc2cccc(C(F)F)c2)c(Cl)c1 [Compound I-119] | 3.81^[a]
CCOC(=O)c1ccc(C(F)(F)CNC(=O)c2cc(Cl)ncc2Oc2cccc(C(F)F)c2)c(Cl)c1 [Compound I-120] | 4.47^[a]
Cc1ccc(CCNC(=O)c2cc(C3CCOC3)ncc2Oc2cccc(C(F)(F)F)c2)c(C)c1 (centres unmarked) [Compound I-121] | 4.30^[a]
Cc1ccc(CCNC(=O)c2cc(C3CCCC3)ncc2Oc2cccc(C(F)(F)F)c2)c(C)c1 [Compound I-122] | 5.57^[a]
C=Cc1ccc(C(F)(F)CNC(=O)c2cc(Cl)ncc2Oc2cccc(C(F)F)c2)c(Cl)c1 [Compound I-123] | 4.47^[a]
Cc1ccc(CCNC(=O)c2cc(Cl)ncc2Oc2cccc(C#N)c2F)c(C)c1 [Compound I-126] | 3.91^[a]
Cc1ccc(CCNC(=O)c2cc(Cl)ncc2Oc2cccc(C=O)c2F)c(C)c1 [Compound I-127] | 3.85^[a]
Cc1ccc(CCNC(=O)c2cc(Cl)ncc2Oc2cccc(Cl)c2F)c(C)c1 [Compound I-128] | 4.71^[a]
C#Cc1cccc(Oc2cnc(Cl)cc2C(=O)NCCc2ccc(C)cc2C)c1 [Compound I-129] | 4.45^[a]
Cc1ccc(CCNC(=O)c2cc(Cl)ncc2Oc2cccc([N+](=O)[O-])c2)c(C)c1 [Compound I-130] | 4.08^[a]
Cc1ccc(CCNC(=O)c2cc(Cl)ncc2Oc2cccc(C)c2F)c(C)c1 [Compound I-131] | 4.76^[a]
COc1cccc(Oc2cnc(Cl)cc2C(=O)NCCc2ccc(C)cc2C)c1F [Compound I-132] | 4.26^[a]
Cc1ccc(CCNC(=O)c2cc(Cl)ncc2Oc2ccccc2)c(C)c1 [Compound I-133] | 4.41^[a]
Cc1ccc(CCNC(=O)c2cc(Cl)ncc2Oc2cccc(Br)c2F)c(C)c1 [Compound I-134] | 4.78^[a]
CCc1cccc(Oc2cnc(Cl)cc2C(=O)NCCc2ccc(C)cc2C)c1 [Compound I-135] | 5.23^[a]
Cc1ccc(CCNC(=O)c2cc(Cl)ncc2Oc2cccc(OC(F)F)c2)c(C)c1 [Compound I-136] | 4.43^[a]

SMILES | LogP
Cc1ccc(CCNC(=O)c2cc(Cl)ncc2Oc2cccc(Br)c2)c(C)c1 [Compound I-137] | 4.86^[a]
Cc1ccc(CCNC(=O)c2cc(Cl)ncc2Oc2cccc(C3COC3)c2)c(C)c1 [Compound I-139] | 3.88^[a]
Cc1ccc(CCNC(=O)c2cc(Cl)ncc2Oc2cccc(I)c2)c(C)c1 [Compound I-141] | 5.01^[a]
C#Cc1ccc(C(F)(F)CNC(=O)c2cc(Cl)ncc2Oc2cccc(C(F)F)c2)c(Cl)c1 [Compound I-143] | 4.32^[a]
Cc1cccc(Oc2cnc(Cl)cc2C(=O)NCC(F)(F)c2ccc(Br)cc2Cl)c1 [Compound I-145] | 5.08^[a]
C=Cc1c(Cl)ncc(Oc2cccc(C(F)(F)F)c2)c1C(=O)NCC(F)(F)c1ccc(C)cc1C [Compound I-146] | 4.93^[a]
COC(=O)c1cccc(Oc2cnc(Cl)cc2C(=O)NCCc2ccc(C)cc2C)c1 [Compound I-147] | 4.20^[a]
Cc1ccc(C(F)(F)CNC(=O)c2c(Oc3cccc(C(F)(F)F)c3)cnc(Cl)c2C2CC2)c(C)c1 [Compound I-149] | 5.04^[a]
Cc1ccc(CCNC(=O)c2cc(Cl)ncc2Oc2cccc3c2CCC3)c(C)c1 [Compound I-150] | 5.45^[a]
Cc1ccc(CCNC(=O)c2cc(Cl)ncc2Oc2cccc(-c3ccccc3)c2)c(C)c1 [Compound I-151] | 5.44^[a]
CCN(CCc1ccccc1)C(=O)c1cc(Cl)ncc1Oc1cccc(C(F)(F)F)c1 [Compound I-152] | 4.44^[a]
Cc1ccc(C(F)(F)CNC(=O)c2c(Oc3cccc(C4CC4)c3F)cnc(Cl)c2Cl)c(C)c1 [Compound I-153] | 5.08^[a]
Cc1ccc(CCNC(=O)c2cc(Cl)ncc2Oc2ccc(F)c(Cl)c2)c(C)c1 [Compound I-154] | 4.72^[a]
C=Cc1cccc(Oc2cnc(Cl)cc2C(=O)NCC(F)(F)c2ccc(C)cc2C)c1 [Compound I-155] | 4.96^[a]
N#Cc1ccc(C(F)(F)CNC(=O)c2cc(Cl)ncc2Oc2cccc(C(F)F)c2)c(Cl)c1 [Compound I-156] | 3.87^[a]
COCc1cccc(Oc2cnc(Cl)cc2C(=O)NCCc2ccc(C)cc2C)c1 [Compound I-157] | 4.33^[a]
Cc1ccc(CCNC(=O)c2cc(Cl)nc(Cl)c2Oc2cccc(C(F)(F)F)c2)c(C)c1 [Compound I-158] | 5.14^[a]
Cc1ccc(CCNC(=O)c2cc(Cl)ncc2Oc2cccc(-n3ccc(C(F)(F)F)n3)c2)c(C)c1 [Compound I-159] | 5.03^[a]
CCc1cc(Oc2cnc(Cl)cc2C(=O)NCCc2ccc(C)cc2C)c(C(=O)OC)s1 [Compound I-162] | 4.51^[a]
Cc1ccc(C(F)(F)CNC(=O)c2cc(Cl)ncc2Oc2cncc(C(F)(F)F)c2)c(C)c1 [Compound I-163] | 4.15^[a]
O=C(c1cc(Cl)ncc1Oc1cccc(C(F)(F)F)c1)N(O)CCc1ccc(Cl)cc1 [Compound I-164] | 4.01^[a]
Cc1ccc(CCNC(=O)c2cc(Cl)ncc2Oc2ccc(OC(F)(F)F)cc2)c(C)c1 [Compound I-165] | 4.97^[a]
CCC(=O)N(CCc1ccccc1)C(=O)c1cc(Cl)ncc1Oc1cccc(C(F)(F)F)c1 [Compound I-166] | 5.08^[a]
Cc1ccc(CCNC(=O)c2cc(Cl)ncc2Oc2ccc3ccccc3c2)c(C)c1 [Compound I-168] | 5.03^[a]
Cc1ccc(C(F)(F)CNC(=O)c2c(Oc3cccc(C(F)(F)F)c3)cnc(Oc3cccc(C(F)(F)F)c3)c2-n2cccn2)c(C)c1 [Compound I-169] | 5.53^[a]
Cc1ccc(CCNC(=O)c2cc(Cl)ncc2Oc2cccc(N(C)C)c2)c(C)c1 [Compound I-170] | 4.83^[a]
